Reference: PMC4848495, “Identification of a Potent and Broad-Spectrum Hepatitis C Virus Fusion Inhibitory Peptide from the E2 Stem Domain” (Scientific Reports, 2016)
Residues, ends and D or L forms follow the SMILES beside them.

How the values were obtained:
E1E2 heterodimer = E1E2 heterodimer analysis by native-PAGE / Western blotting; format: cell-based, Hepatitis C virus; conditions: E27 expressed from plasmid co-transfected with E1E2 in Huh7.5.1 cells, 24 h
Procedure: (§1) Figure 5 Effect of E27 on E1E2 heterodimerization. (a) Analysis of the E1E2 heterodimer by native-PAGE. A plasmid expressing the E27 peptide or a scramble control peptide was co-transfected into Huh7.5.1 cells with a plasmid encoding E1E2. The single E1 or E2 plasmid was used as the control. At 24 h post-transfection, cells were lysed for Western blotting using antibodies recognizing E1 or E2. (b,c) Interaction between the E27 and E1/E2 glycoproteins was determined by co-immunoprecipitation. A plasmid expressing Myc-tagged E27 was co-expressed with either Flag-tagged E1 (b) or Flag-tagged E2 (c). Cell lysates were immunoprecipitated with an anti-Flag antibody and detected with an anti-Myc antibody or an anti-E1- or E2 antibody. The empty Flag vector was used as a negative control.
(§2) For cell lysate preparation, monolayer cells were lysed on ice with lysis buffer supplemented with protease inhibitor cocktail (Sigma or Pierce). After electrophoresis, the separated proteins were transferred onto a nitrocellulose membrane (Bio-Rad, Hercules, CA), blocked with 10% milk for 1 h, and incubated with the primary antibody overnight at 4 °C. The secondary antibody used was a 1:2000 dilution of HRP-linked anti-IgG. The ECL reagent (Amersham Biosciences, Piscataway, NJ) was used as the substrate for detection. […]

JFH-1 HCVcc = assay: Virus pre-treatment (virocidal) assay; conditions: 1 μM, 2 h at 37 °C, unbound peptide removed by ultracentrifugation, then infection of Huh7.5.1 cells
Text: After removal of the unbound peptide, the viruses were resuspended and used to infect naïve Huh7.5.1 cells.

[1] = system: HCV full-length genotype 1b replicon-containing cell line (2-3+); format: cell-based, Hepatitis C virus; conditions: replicon cells, 1 μM, 48 h
E1/E2 glycoproteins = assay: Co-immunoprecipitation of E27 with E1 or E2; format: binding, Hepatitis C virus; conditions: Myc-tagged E27 co-expressed with Flag-tagged E1 or E2, anti-Flag immunoprecipitation
Procedure: as §1, §2

[2] = system: CLDN1, OCLND, CD81 and SR-BI in Huh7 cells; assay: Co-receptor expression and localization (immunofluorescence, Western blotting); format: cell-based, human; conditions: 1 μM 24 h (staining), 0, 0.1, 1 or 5 μM (Western blotting)
Procedure: Figure 4 E27 affects neither HCV co-receptor localization nor expression levels. (a) DMSO and E27 (1 μM) were added to Huh7 cells and allowed to incubate for 24 h. CLDN1, OCLND, CD81 and SR-BI were stained with corresponding antibodies (green), and nuclei (blue) were stained with DAPI. (b) Huh7 cells were treated with 0, 0.1, 1 or 5 μM of E27, and the expression levels of CLDN1, OCLND, CD81 and SR-BI were analyzed by Western blotting. The expression of β-actin was also analyzed as a loading control.
Immunostaining of Huh7 cells was performed using antibodies against CLDN1, OClD, SR-BI or CD81 as previously descriped. Images were captured on a Leica SPW5 confocal microscope. Nucleus was stained with DAPI.
as §2, with “detection. For immunoprecipitation-coupled Western blotting, cleared cell lysates were immunoprecipitated with anti-FLAG M2 affinity resin (Sigma) and washed with lysis buffer.” for “detection.”

[3] = system: HCV entry into Huh7.5.1 cells; assay: Time-of-addition assays; format: cell-based, Hepatitis C virus; conditions: 1 μM
Procedure: Next, to further corroborate that E27 targets HCV fusion, we sought to define the steps of HCV cell entry targeted by E27. […] In addition, we added E27 to Huh7.5.1 cells at different time intervals during the early phase of HCV infection. Three different time-points assays were conducted: cells were exposed to HCV for 1 h at 4 °C (attachment/binding period). Virus was removed, and the cells were washed with serum-free medium and incubated at 4 °C for another 1 h (postattachment/binding period). The cells were then washed and incubated for 1 h at 37 °C (endocytosis/fusion period). Finally, the cells were washed and incubated in 10% FBS-containing culture medium for 24 h, E27 was added at one of these steps. […] Moreover, we compared inhibitory kinetics between E27 and bafilomycin A1, a well-recognized inhibitor of fusion during virus infection.
Huh7.5.1 cells were seeded at 8 × 10^4 cells/well in 24-well plates. The next day, virus inoculum was added to the plates, which were then incubated at 4 °C for 1 h. Unbound virus was removed by 3 washes with cold medium. The cells were then shifted to 37 °C and incubated. The specified inhibitors were added at specific time points during infection and were either removed by washing after two hours or added back as described in the Figure legends. Firefly luciferase activity was quantified at 48 h post-infection. The experiments were performed in triplicate.

Huh7.5.1 cells = assay: Cytotoxicity assay (MTT); format: cell-based, human
Procedure: Huh7.5.1 cells were treated with E27 for the indicated concentration and period of time. After removal of E27, cells were incubated for an additional 48 h in 24-well plates. Cytotoxicity was determined using the MTT Cell Viability Assay Kit from R&D Systems (Minneapolis, MN, USA).

[4] = system: VSV-G-pseudotyped lentivirus; format: cell-based
[5] = system: HCV glycoprotein E1E2-mediated membrane fusion; assay: cell-based; format: cell-based, Hepatitis C virus (strain H77)
[6] = target: HCV glycoprotein E1E2-mediated membrane fusion (Hepatitis C virus genotype 1a, UniProt P27958); assay: cell-based; format: cell-based, Hepatitis C virus (strain H77); conditions: cell-cell fusion assay (Supplementary Fig. S3)
[7] = system: HCVpp packaged with E1E2 from genotypes 1–6; assay: HCVpp entry assay; format: cell-based, Hepatitis C virus; conditions: HCVpp system and HCVcc system (Fig. 8A,B)

HCV glycoprotein E1E2-mediated membrane fusion (Hepatitis C virus genotype 1a, UniProt P27958), sequence (P27958 384-746): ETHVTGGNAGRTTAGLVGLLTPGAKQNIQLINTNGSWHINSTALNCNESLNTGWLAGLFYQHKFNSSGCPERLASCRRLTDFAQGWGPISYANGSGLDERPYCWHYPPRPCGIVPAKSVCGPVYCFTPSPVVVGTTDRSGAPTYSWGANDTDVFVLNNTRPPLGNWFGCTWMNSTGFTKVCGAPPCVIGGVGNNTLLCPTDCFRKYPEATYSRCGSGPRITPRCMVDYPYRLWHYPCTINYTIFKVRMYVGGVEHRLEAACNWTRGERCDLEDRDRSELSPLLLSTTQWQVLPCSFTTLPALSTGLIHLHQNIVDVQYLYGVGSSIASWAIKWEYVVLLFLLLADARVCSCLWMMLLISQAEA
HCV glycoprotein E1E2-mediated membrane fusion (Hepatitis C virus genotype 1a, UniProt P27958), sequence (P27958 192-383): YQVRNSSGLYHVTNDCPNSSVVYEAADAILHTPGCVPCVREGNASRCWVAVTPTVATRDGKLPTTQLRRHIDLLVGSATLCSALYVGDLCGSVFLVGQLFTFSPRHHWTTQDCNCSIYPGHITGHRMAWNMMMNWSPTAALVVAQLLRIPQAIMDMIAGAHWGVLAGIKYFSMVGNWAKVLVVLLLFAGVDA

Compound	effect on E1E2 heterodimers (E1E2 heterodimer)	virocidal effect on HCV (JFH-1 HCVcc)	effect on intracellular HCV core protein level ([1]; Western blotting)	effect on HCV RNA replication ([1]; qRT-PCR)	interaction with E1 or E2 (E1/E2 glycoproteins)	effect on subcellular distribution and expression of co-receptors [2]	inhibition when added during the attachment or binding step ([3]; 1 h at 4 °C)	inhibition when added together with the virus or within 2 h of infection ([3]; HCVpp, Huh7.5.1 cells, luciferase at 48 h)	inhibition when added prior to infection ([3]; added 2 or 4 h prior to HCVpp inoculation and removed, luciferase at 48 h)	inhibition of HCV infection when added during the late entry step ([3]; endocytosis/fusion period, 1 h at 37 °C)	CC50 (Huh7.5.1 cells) [µM]	inhibition of entry of VSV-G–pseudotyped lentivirus [4]	susceptibility of E1-1 and E1-9 mutated E1E2 to E27 in the fusion assay [5]	suppression of wild-type E1E2-mediated fusion [6]	antiviral activity compared to the parental peptide [7]
CC[C@H](C)[C@H](NC(=O)[C@H](CC(C)C)NC(=O)CNC(=O)[C@@H](NC(=O)[C@H](CO)NC(=O)[C@H](CC(C)C)NC(=O)[C@H](C)NC(=O)[C@@H]1CCCN1C(=O)[C@H](CC(C)C)NC(=O)[C@@H](NC(=O)[C@@H](NC(=O)[C@H](Cc1ccccc1)NC(=O)[C@H](CO)NC(=O)[C@H](CS)NC(=O)[C@@H]1CCCN1C(=O)[C@H](CC(C)C)NC(=O)[C@@H](NC(=O)[C@H](CCC(N)=O)NC(=O)[C@H](Cc1c[nH]c2ccccc12)NC(=O)[C@@H](N)CCC(N)=O)C(C)C)[C@@H](C)O)[C@@H](C)O)[C@@H](C)O)C(=O)N[C@@H](Cc1c[nH]cn1)C(=O)N[C@@H](CC(C)C)C(=O)N[C@@H](Cc1c[nH]cn1)C(=O)N[C@@H](CCC(N)=O)C(=O)N[C@@H](CC(N)=O)C(=O)N[C@H](C(=O)N[C@H](C(=O)N[C@@H](CC(=O)O)C(=O)N[C@H](C(=O)N[C@@H](CCC(N)=O)C(=O)N[C@@H](Cc1ccc(O)cc1)C(=O)N[C@@H](CC(C)C)C(=O)N[C@@H](Cc1ccc(O)cc1)C(=O)NCC(=O)N[C@H](C(=O)O)C(C)C)C(C)C)C(C)C)[C@@H](C)CC [E27] (H-QWQVLPCSFTTLPALSTGLIHLHQNIVDVQYLYGV-OH; N-terminus and C-terminus assumed)	significant decrease	no virocidal effect	no impact	no impact	neither E1 nor E2 interact independently with E27	no detectable effect	no inhibition was observed	best inhibitory activity	no inhibition was observed	strong inhibition	180.3	did not inhibit	markedly increased resistance	efficiently suppressed	–
CSFTTLP ALSTGLIHLHQNIVDVQYLYGV [E27-2, E27 shortened by 6 aa from the N-terminus, residues 7-35]	–	–	–	–	–	–	–	–	–	–	–	–	–	–	slightly increased
